{
  "source": "patent US20200367543A1",
  "about": "“SWEETENER AND FLAVOR COMPOSITIONS, METHODS OF MAKING AND METHODS OF USE THEREOF” (EPC Natural Products Co., Ltd., priority 2018, published 2020)",
  "key": {"[1]": {"assay": "Sensory evaluation of GSGs and SGs, thaumatin, NHDC and combinations (Ex. 255)", "conditions": "combinations of EPCalin and NHDC dissolved in water", "experimental": "4.5 ppm Thaumatin (equivalent to 10 ppm EPCalin) was dissolved in water. Increasing amounts of NHDC (1-5 ppm) were added to the solution and the sensory properties were evaluated.\n50 ppm (GSGs and SGs) were dissolved in water. Increasing amounts of NHDC (1-5 ppm) were added to the solution and the sensory properties were evaluated.\n50 ppm (GSGs and SGs) and 4.5 ppm Thaumatin (equivalent to 10 ppm EPCalin) were dissolved in water. Increasing amounts of NHDC (1-5 ppm) were added to the solution and the sensory properties were evaluated."}, "[2]": {"conditions": "compared to sucrose; cited from earlier work"}, "[3]": {"conditions": "cited from earlier work; for times sweeter than sucrose: sweetness depends on the tested concentration compared with sucrose; for natural sweetness, times of that of sugar: constituents of monk fruit juice or extract; for Sweetness by weight: compared to sucrose"}, "[4]": {"assay": "Kinetics of reaction in dependence of pH-conditions (degradation of Phe and Reb-A, Gluc, Xyl, Suc) by HPLC/MS", "experimental": "Quantitative evaluation was performed using external standardization.\nKinetics of Reaction in Dependence of pH-Conditions"}, "[5]": {"assay": "Assay to test reducing power, active iron-III reduction (Ex. 64)", "conditions": "10 mM, 100° C., 0-5.0 h, diluted 1:10"}, "[6]": {"assay": "DPPH radical-scavenging activity (Ex. 65)", "conditions": "10 mM, 100° C., 0-5.0 h, diluted 1:10", "experimental": "1 mg 1,1-Diphenyl-2-picrylhydrazyl radical (DPPH)/ml ethanol, dilution to assay concentration were prepared in ethanol (40 μg/mL); Calibration samples were prepared with Ascorbic acid in a concentration of 0-10 μg/mL; as a negative control sample, water was used.\nSamples in aqueous solution were used as such or diluted with water.\nA 0.1 ml sample (or calibration standard) was mixed with 3.9 ml solution of DPPH\n([…]) and reacted while protected from light at room temperature for 30 min. Absorbance was determined at 517 nm against ethanol.\n10 mM of amino acid and/or 10 mM sugar were dissolved in 10 ml 0.1 mM KH2PO4-buffer, pH=7.8.\nThe samples were kept at 100° C. in sealed glass vials (Pyrex 15 ml with screw caps) for 0 (before reaction), 2.5 or 5.0 hours. Thereafter the samples were transferred to an ice water bath and cooled down to room temperature. These samples were diluted 1:10 and used for the test assay for anti-oxidant potential."}},
  "note": "Like-named read-outs stand apart in the source and are kept apart here.",
  "data": [
    {"compound": "COc1ccc(CCC(=O)c2c(O)cc(O[C@@H]3O[C@H](CO)[C@@H](O)[C@H](O)[C@H]3O[C@@H]3O[C@@H](C)[C@H](O)[C@@H](O)[C@H]3O)cc2O)cc1O", "note": "[10 ppm NHDC]", "values": [
      {"measurement": "Sensory evaluation", "setting": "[1]", "value": "Sweet, steep onset of sweetness, no lingering"}
    ]},
    {"compound": "OC[C@@H](O)[C@@H](O)CO", "note": "[Erythritol]", "values": [
      {"measurement": "Energy density", "setting": "[2]", "value": 0.05}
    ]},
    {"compound": "OCC(O)CO", "note": "[Glycerol]", "values": [
      {"measurement": "Energy density", "setting": "[2]", "value": 1.075}
    ]},
    {"compound": "CC1(C)[C@@H](O[C@H]2O[C@H](C(=O)O)[C@@H](O)[C@H](O)[C@H]2O[C@@H]2O[C@H](C(=O)O)[C@@H](O)[C@H](O)[C@H]2O)CC[C@]2(C)[C@H]3C(=O)C=C4[C@@H]5C[C@@](C)(C(=O)O)CC[C@]5(C)CC[C@@]4(C)[C@]3(C)CC[C@@H]12", "note": "[Glycyrrhizin]", "values": [
      {"measurement": "times sweeter than sucrose", "setting": "[3]", "value": "30 to 50", "unit": "times"}
    ]},
    {"compound": "OC[C@@H](O)[C@@H](O[C@@H]1O[C@H](CO)[C@H](O)[C@H](O)[C@H]1O)[C@H](O)[C@@H](O)CO", "note": "[Lactitol]", "values": [
      {"measurement": "Energy density", "setting": "[2]", "value": 0.5}
    ]},
    {"compound": "O=C(O)[C@H](Cc1ccccc1)NCC(=O)[C@@H](O)[C@H](O)[C@H](O)CO", "note": "[MRI (Phe-Glu)]", "values": [
      {"measurement": "% formation from degraded Phe", "setting": "[4]; reaction of Phe and Suc, pH = 5.5, n.d. = not detected", "value": "<0.10", "unit": "%"},
      {"measurement": "% formation from degraded Phe", "setting": "[4]; reaction of Phe and Suc, pH = 7.0, n.d. = not detected", "value": 0.54, "unit": "%"},
      {"measurement": "% formation from degraded Phe", "setting": "[4]; reaction of Phe and Suc, pH = 8.5, n.d. = not detected", "value": 0.84, "unit": "%"}
    ]},
    {"compound": "C=C1CC23CC[C@H]4[C@@](C)(CCC[C@@]4(C)C(=O)OC4O[C@H](C(=O)N[C@H](Cc5ccccc5)C(=O)O)[C@@H](O)[C@H](O)[C@H]4O)[C@@H]2CC(O[C@@H]2O[C@H](CO)[C@@H](O)C(O[C@@H]4O[C@H](CO)[C@@H](O)[C@H](O)[C@H]4O)[C@H]2O[C@@H]2O[C@H](CO)[C@@H](O)[C@H](O)[C@H]2O)C1C3", "note": "(stereo partly drawn) [MRI (Phe-Reb-A)]", "values": [
      {"measurement": "% formation from degraded Phe", "setting": "[4]; reaction of Phe and Reb-A, pH = 5.5, MRI (Phe-Reb-A): all possible isomers included", "value": 10.4, "unit": "%"},
      {"measurement": "% formation from degraded Phe", "setting": "[4]; reaction of Phe and Reb-A, pH = 7.0, MRI (Phe-Reb-A): all possible isomers included", "value": 11.3, "unit": "%"},
      {"measurement": "% formation from degraded Phe", "setting": "[4]; reaction of Phe and Reb-A, pH = 8.5, MRI (Phe-Reb-A): all possible isomers included", "value": 14.7, "unit": "%"}
    ]},
    {"compound": "OC[C@@H](O)[C@@H](O[C@H]1O[C@H](CO)[C@@H](O)[C@H](O)[C@H]1O)[C@H](O)[C@@H](O)CO", "note": "[Maltitol]", "values": [
      {"measurement": "Energy density", "setting": "[2]", "value": 0.525}
    ]},
    {"compound": "OC[C@@H](O)[C@@H](O)[C@H](O)[C@H](O)CO", "note": "[Mannitol]", "values": [
      {"measurement": "natural sweetness, times of that of sugar", "setting": "[3]", "value": "0.55-0.65 times"},
      {"measurement": "Energy density", "setting": "[2]", "value": 0.4}
    ]},
    {"compound": "COc1ccc(CCC(=O)c2c(O)cc(O[C@@H]3O[C@H](CO)[C@@H](O)[C@H](O)[C@H]3O[C@@H]3O[C@@H](C)[C@H](O)[C@@H](O)[C@H]3O)cc2O)cc1O", "note": "[NHDC, Neohesperidin dihydrochalcone]", "values": [
      {"measurement": "times sweeter than sugar", "setting": "[3]; at threshold concentrations", "value": "1500-1800 times"},
      {"measurement": "times sweeter than sugar", "setting": "[3]; weight-for-weight", "value": "about 340 times"}
    ]},
    {"compound": "C=C1C[C@@]23CC[C@H]4[C@@](C)(CCC[C@@]4(C)C(=O)O[C@@H]4O[C@H](CO)[C@@H](O)[C@H](O)[C@H]4O)[C@@H]2CC[C@]1(O[C@@H]1O[C@H](CO)[C@@H](O)[C@H](O[C@@H]2O[C@H](CO)[C@@H](O)[C@H](O)[C@H]2O)[C@H]1O[C@@H]1O[C@H](CO)[C@@H](O)[C@H](O)[C@H]1O)C3", "note": "[Reb-A, Rebaudioside A]", "values": [
      {"measurement": "anti-oxidant properties (active iron-III reduction)", "setting": "[5]", "value": "substantial anti-oxidant properties"},
      {"measurement": "anti-oxidant properties (radical scavenging)", "setting": "[6]", "value": "substantial anti-oxidant properties"}
    ]},
    {"compound": "OC[C@@H](O)[C@@H](O)[C@H](O)[C@@H](O)CO", "note": "[Sorbitol]", "values": [
      {"measurement": "Energy density", "setting": "[2]", "value": 0.65}
    ]},
    {"compound": "O=C(CO)[C@@H](O)[C@@H](O)[C@H](O)CO", "note": "[Tagatose]", "values": [
      {"measurement": "Energy density", "setting": "[2]", "value": 0.38}
    ]},
    {"compound": "C[C@H](CC[C@@H](O[C@@H]1O[C@H](CO)[C@@H](O)[C@H](O)[C@H]1O[C@@H]1O[C@H](CO)[C@@H](O)[C@H](O)[C@H]1O)C(C)(C)O)[C@H]1CC[C@@]2(C)[C@H]3CC=C4[C@@H](CC[C@H](O[C@@H]5O[C@H](CO[C@@H]6O[C@H](CO)[C@@H](O)[C@H](O)[C@H]6O)[C@@H](O)[C@H](O)[C@H]5O)C4(C)C)[C@]3(C)[C@H](O)C[C@]12C", "note": "[mogroside IV]", "values": [
      {"measurement": "natural sweetness, times of that of sugar", "setting": "[3]", "value": 126, "unit": "times"}
    ]},
    {"compound": "C[C@H](CC[C@@H](O[C@@H]1O[C@H](CO[C@@H]2O[C@H](CO)[C@@H](O)[C@H](O)[C@H]2O)[C@@H](O)[C@H](O)[C@H]1O[C@@H]1O[C@H](CO)[C@@H](O)[C@H](O)[C@H]1O)C(C)(C)O)[C@H]1CC[C@@]2(C)[C@@H]3CC=C4[C@@H](CC[C@H](O[C@@H]5O[C@H](CO[C@@H]6O[C@H](CO)[C@@H](O)[C@H](O)[C@H]6O)[C@@H](O)[C@H](O)[C@H]5O)C4(C)C)[C@]3(C)[C@H](O)C[C@]12C", "note": "[mogroside V]", "values": [
      {"measurement": "natural sweetness, times of that of sugar", "setting": "[3]", "value": "256-344 times"}
    ]},
    {"compound": "O=S(=O)([O-])NC1CCCCC1.[Na+]", "note": "[sodium cyclamate]", "values": [
      {"measurement": "times sweeter than sucrose", "setting": "[3]", "value": "about 30 times"}
    ]},
    {"compound": "OC[C@H]1O[C@H](O[C@]2(CCl)O[C@H](CCl)[C@@H](O)[C@@H]2O)[C@H](O)[C@@H](O)[C@H]1Cl", "note": "[sucralose]", "values": [
      {"measurement": "times sweeter than sucrose", "setting": "[3]", "value": "about 600 times"}
    ]},
    {"compound": "Fructo-oligosaccharide", "values": [
      {"measurement": "Sweetness by weight", "setting": "[3]", "value": "0.3-0.5"}
    ]},
    {"compound": "Isomalt", "values": [
      {"measurement": "Energy density", "setting": "[2]", "value": 0.5}
    ]},
    {"compound": "Isomalto-oligosaccharide", "values": [
      {"measurement": "Sweetness by weight", "setting": "[3]", "value": 0.5}
    ]},
    {"compound": "rebaudioside B [Reb B]", "values": [
      {"measurement": "% formation from degraded Reb-A", "setting": "[4]; reaction of Phe and Reb-A, pH = 5.5", "value": 23.1, "unit": "%"},
      {"measurement": "% formation from degraded Reb-A", "setting": "[4]; reaction of Phe and Reb-A, pH = 7.0", "value": 22.7, "unit": "%"},
      {"measurement": "% formation from degraded Reb-A", "setting": "[4]; reaction of Phe and Reb-A, pH = 8.5", "value": 19.1, "unit": "%"}
    ]}
  ]
}
